These results are taken from patent US20160287624A1, “Water-Soluble Vitamins to Increase Oral Absorption and Bioavailability” (NESTEC S.A., priority 2013, published 2016).

A value given as a limit tells only on which side of the number the result lay.

The nature of series [1]: Stability of vitamin B12 in simulated gastric fluid (HPLC-UV). The format is physicochemical. The following applies: 37° C. As to the method: The pH of simulated gastric fluid was measured. […] The solutions were incubated at 37° C. in the water bath of a shaker operated at 50 rpm. After 2 hrs. of incubation, 1 mL solution was taken for HPLC analysis.
The pure vitamin B12 (F4) was also reconstituted in gastric fluid as an unformulated control. Both sample solutions were made to contain 20 μg/ml vitamin B12, wrapped with aluminum foil to avoid exposure to light, and incubated at 37° C. for two hours. The solutions were then stored in a freezer for 22 hrs. The frozen samples were thawed to room temp before HPLC-UV analysis.

For series [2] the following is noted: rat, in vivo, po.
Protocol: Rats (n=6 per group) were orally administered at a dose equivalent to 2 mg/70 kg person in a free form (unformulated control F4) or a formulation of Formula 1 (API:Stevia at 1:25 w/w), Formula 2 (API:Stevia at 1:50 w/w), or Formula 3 (API:Stevia at 1:125 w/w).
To answer the question whether the solubilizer enhanced the absorption of vitamin B12, the four formulations were assessed in a Sprague Dawley rat model at the vitamin B12 dose equivalent to 1 mg/70 kg person. Each group (formulation) had 6 rats (n=6). Each rat was orally gavaged and blood collected at 11 time points during a 12-hour period. The plasma samples were stored in a freezer prior to vitamin B12 analyses. Relative bioavailability was calculated by comparing the area under the time-concentration curves of formulated over the unformulated control.
Vitamin B12 in rat plasma over time after oral gavage with baseline normalized for all treatments were analyzed by a radioimmunoassay method. The vitamin B12 in rat plasma over a 12-hr period at 15, 30, 45, 60, 90 min, and 2, 2.5, 4, 6, 8, and 12 h after oral gavage at a dose equivalent to 2 mg/70 kg person in a free form (unformulated control) or a formulated form of Formula 1 (vitamin B12:stevia at 1:25 w/w), Formula 2 (vitamin B12:stevia at 1:50 w/w), or Formula 3 (vitamin B12:stevia at 1:125 w/w) were analyzed.
In another series the test system is Caco-2 cell monolayer. Put plainly: Absorption assessment in Caco-2 cell monolayer (A->B permeability).
Assay in series [3]: as above
Description: A Caco-2 cellular model was used to study the effect of the stevia solubilizer on the intestinal absorption of vitamin B12. The Caco-2 cell monolayer model is the pharmaceutical industry standard for predicting human oral absorption. The test samples included:
The following applies: human, Caco-2, Mean A->B Papp, assay duration 2 hr; controls 10 μM, formulations analyte test conc. 20 μg/mL.

Consider `C/C1=C2/[N-][C@H]([C@H](CC(N)=O)[C@@]2(C)CCC(=O)NC[C@@H](C)OP(=O)([O-])O[C@H]2[C@@H](O)[C@@H](n3cnc4cc(C)c(C)cc43)O[C@@H]2CO)[C@]2(C)N=C(/C(C)=C3N=C(/C=C4N=C1[C@@H](CCC(N)=O)C\4(C)C)[C@@H](CCC(N)=O)[C@]\3(C)CC(N)=O)[C@@H](CCC(N)=O)[C@]2(C)CC(N)=O.[CH3-].[Co+3]` [Formula F4, methylcobalamin], for which the “Stability of vitamin B12 in gastric fluid” value in series [1] (over a two hour period, 20 μg/ml) is listed as “stable”. For the same molecule, the “R.E. (relative error) 2 hr” value in series [1] (simulated gastric fluid, 2 hr) was 3.7%. For the same molecule, the “Determined Concentration 2 hr” value in series [1] (simulated gastric fluid, 2 hr, 0 hr 20.2 μg/mL) is 21.0 µg/mL. In series [2], the “Time during which vitamin B12 in plasma was detected” value was 480 min and the “Tmax (the time at which Cmax is reached)” value is 1.5 h. Also, the “Permeability across Caco-2 cell monolayer” value with Caco-2 cell monolayer is “not permeable”. Further, the “Mean A->B Papp” value with Caco-2 cell monolayer (assay duration 2 hr, controls 10 μM, formulations analyte test conc. 20 μg/mL) is on record as “<LLOQ^c”.
By Papp A→B is commonly meant the apparent permeability from the apical to the basolateral side of a cell layer. With `CNC(=C[N+](=O)[O-])NCCSCc1ccc(CN(C)C)o1` [Ranitidine], the Papp A→B at 2 h, 10 μM in series [3] was determined as 0.3 ×10⁻⁶ cm/s.
